According to ChEMBL document CHEMBL1201861, “Genomics of Drug Sensitity in Cancer screening data, Wellcome Trust Sanger Institute”:

Key:
Test in all cases: cells
NCI-H1648 = format: functional, cell-based, Homo sapiens;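 further: cell viability assay measuring inhibition of NCI-H1648 cell growth, from the Sanger screening data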
Description: SANGER: Inhibition of human NCI-H1648 cell growth in a cell viability assay.

RXF 393 = format: functional, cell-based, Homo sapiens;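 further: growth inhibition of human RXF 393 cells, read out with a cell viability assay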
Description: SANGER: Inhibition of human RXF393 cell growth in a cell viability assay.

DMS-114 = format: functional, cell-based, Homo sapiens
EC-GI-10 = format: functional, cell-based, Homo sapiens
Description: SANGER: Inhibition of human EC-GI-10 cell growth in a cell viability assay.

NCI-H1838 = format: functional, cell-based, Homo sapiens;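 further: growth inhibition of NCI-H1838 cells, determined with a cell viability readout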
Description: SANGER: Inhibition of human NCI-H1838 cell growth in a cell viability assay.

LOX IMVI = format: functional, cell-based, Homo sapiens
Description: SANGER: Inhibition of human LOXIMVI cell growth in a cell viability assay.

LB771-HNC = format: functional, cell-based, Homo sapiens;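 further: growth inhibition of LB771-HNC human cells, read out with a cell viability assay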
Description: SANGER: Inhibition of human LB771-HNC cell growth in a cell viability assay.

LU-134-A = format: functional, cell-based, Homo sapiens
Description: SANGER: Inhibition of human LU-134-A cell growth in a cell viability assay.

SK-LMS-1 = format: functional, cell-based, Homo sapiens;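 further: growth inhibition of human SK-LMS-1 cells, read out with a cell viability assay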
Description: SANGER: Inhibition of human SK-LMS-1 cell growth in a cell viability assay.

IST-SL1 = format: functional, cell-based, Homo sapiens;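 further: growth inhibition of human IST-SL1 cells, read out with a cell viability assay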
Description: SANGER: Inhibition of human IST-SL1 cell growth in a cell viability assay.

SF-539 = format: functional, cell-based, Homo sapiens;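 further: Read-out is a cell viability assay, with IC50 reflecting inhibition of cell growth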
Description: SANGER: Inhibition of human SF539 cell growth in a cell viability assay.

KU812 cell line = format: functional, cell-based, Homo sapiens;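 further: growth inhibition of KU812 cells, read out with a cell viability assay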
Description: SANGER: Inhibition of human KU812 cell growth in a cell viability assay.

MC116 = format: functional, cell-based, Homo sapiens;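 further: growth inhibition of MC116 cells, read out with a cell viability assay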
Description: SANGER: Inhibition of human MC116 cell growth in a cell viability assay.

ES4 = format: functional, cell-based, Homo sapiens;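 further: growth inhibition of human ES4 cells, read out by a cell viability assay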
Description: SANGER: Inhibition of human ES4 cell growth in a cell viability assay.

UACC-257 = format: functional, cell-based, Homo sapiens
Description: SANGER: Inhibition of human UACC-257 cell growth in a cell viability assay.

MV4-11 = format: functional, cell-based, Homo sapiens, MV-4-11;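 further: cell viability readout measuring growth inhibition of human MV-4-11 cells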
Description: SANGER: Inhibition of human MV-4-11 cell growth in a cell viability assay.

NCI-H720 = format: functional, cell-based, Homo sapiens;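 further: growth inhibition of human NCI-H720 cells determined by a cell viability assay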
Description: SANGER: Inhibition of human NCI-H720 cell growth in a cell viability assay.

AM-38 = format: functional, cell-based, Homo sapiens;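 further: growth inhibition of AM-38 cells of human origin, read out by a cell viability assay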
Description: SANGER: Inhibition of human AM-38 cell growth in a cell viability assay.

ES3 = format: functional, cell-based, Homo sapiens;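 further: growth inhibition of ES3 cells, read out with a cell viability assay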
Description: SANGER: Inhibition of human ES3 cell growth in a cell viability assay.

KG-1 = format: functional, cell-based, Homo sapiens;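 further: growth inhibition of KG-1 cells, read out by a cell viability assay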
Description: SANGER: Inhibition of human KG-1 cell growth in a cell viability assay.

NCI-H1581 = format: functional, cell-based, Homo sapiens;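 further: cell growth inhibition read out by a viability assay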
Description: SANGER: Inhibition of human NCI-H1581 cell growth in a cell viability assay.

KM12 = format: functional, cell-based, Homo sapiens;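 further: KM12 cell growth inhibition, read out with a cell viability assay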
Description: SANGER: Inhibition of human KM12 cell growth in a cell viability assay.

TGBC24TKB = format: functional, cell-based, Homo sapiens;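 further: growth inhibition of human TGBC24TKB cells, read out with a cell viability assay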
Description: SANGER: Inhibition of human TGBC24TKB cell growth in a cell viability assay.

TGBC1TKB = format: functional, cell-based, Homo sapiens;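 further: growth inhibition of TGBC1TKB cells, read out by a cell viability assay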
Description: SANGER: Inhibition of human TGBC1TKB cell growth in a cell viability assay.

Calu-6 = format: functional, cell-based, Homo sapiens;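 further: growth of human Calu-6 cells, read out by a cell viability assay, IC50 marking inhibition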
Description: SANGER: Inhibition of human Calu-6 cell growth in a cell viability assay.

TE-10 = format: functional, cell-based, Homo sapiens;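 further: growth inhibition of TE-10 cells, measured by a cell viability assay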
Description: SANGER: Inhibition of human TE-10 cell growth in a cell viability assay.

DB = format: functional, cell-based, Homo sapiens
Description: SANGER: Inhibition of human DB cell growth in a cell viability assay.

OVCAR-4 = format: functional, cell-based, Homo sapiens;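 further: growth inhibition of human OVCAR-4 cells, measured with a cell viability assay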
Description: SANGER: Inhibition of human OVCAR-4 cell growth in a cell viability assay.

OMC-1 = format: functional, cell-based, Homo sapiens;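 further: growth inhibition of the OMC-1 cell line, measured by a cell viability assay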
Description: SANGER: Inhibition of human OMC-1 cell growth in a cell viability assay.

NCI-H446 = format: functional, cell-based, Homo sapiens; conditions: nci-h446;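 further: growth inhibition of NCI-H446 cells determined by a cell viability assay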
Description: SANGER: Inhibition of human NCI-H446 cell growth in a cell viability assay.

SW872 = format: functional, cell-based, Homo sapiens;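 further: growth inhibition of SW872 cells, read out by a viability assay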
Description: SANGER: Inhibition of human SW872 cell growth in a cell viability assay.

MS-1 = format: functional, cell-based, Homo sapiens
Description: SANGER: Inhibition of human MS-1 cell growth in a cell viability assay.

K5 = format: functional, cell-based, Homo sapiens
Description: SANGER: Inhibition of human K5 cell growth in a cell viability assay.

CCRF-CEM = format: functional, cell-based, Homo sapiens;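 further: inhibition of CCRF-CEM cell growth, measured by a cell viability assay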
Description: SANGER: Inhibition of human CCRF-CEM cell growth in a cell viability assay.

HT = format: functional, cell-based, Homo sapiens
Description: SANGER: Inhibition of human HT cell growth in a cell viability assay.

ETK-1 = format: functional, cell-based, Homo sapiens;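 further: growth inhibition of human ETK-1 cells, read out with a cell viability assay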
Description: SANGER: Inhibition of human ETK-1 cell growth in a cell viability assay.

HH = format: functional, cell-based, Homo sapiens
Description: SANGER: Inhibition of human HH cell growth in a cell viability assay.

DSH1 = format: functional, cell-based, Homo sapiens;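 further: growth inhibition of human DSH1 cells, measured with a cell viability readout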
Description: SANGER: Inhibition of human DSH1 cell growth in a cell viability assay.

C2BBe1 = format: functional, cell-based, Homo sapiens;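 further: growth inhibition of C2BBe1 cells, read out through a viability assay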
Description: SANGER: Inhibition of human C2BBe1 cell growth in a cell viability assay.

SW 962 = format: functional, cell-based, Homo sapiens;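 further: growth inhibition of human SW962 cells, read out by a cell viability assay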
Description: SANGER: Inhibition of human SW962 cell growth in a cell viability assay.

NOMO-1 = format: functional, cell-based, Homo sapiens;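 further: growth inhibition of human NOMO-1 cells measured by a cell viability assay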
Description: SANGER: Inhibition of human NOMO-1 cell growth in a cell viability assay.

CAS-1 = format: functional, cell-based, Homo sapiens;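 further: growth inhibition of CAS-1 cells, measured with a cell viability assay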
Description: SANGER: Inhibition of human CAS-1 cell growth in a cell viability assay.

QIMR-WIL = format: functional, cell-based, Homo sapiens;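 further: growth inhibition of QIMR-WIL cells, read out with a cell viability assay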
Description: SANGER: Inhibition of human QIMR-WIL cell growth in a cell viability assay.

L-428 = format: functional, cell-based, Homo sapiens
Description: SANGER: Inhibition of human L-428 cell growth in a cell viability assay.

TE-9 = format: functional, cell-based, Homo sapiens;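 further: cell growth inhibition, measured with a cell viability readout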
Description: SANGER: Inhibition of human TE-9 cell growth in a cell viability assay.

SNB-75 = format: functional, cell-based, Homo sapiens;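 further: cell viability assay measuring growth inhibition of human SNB-75 cells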
Description: SANGER: Inhibition of human SNB75 cell growth in a cell viability assay.

SNU1 = format: functional, cell-based, Homo sapiens; conditions: Homo sapiens, SNU1;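 further: growth inhibition of human NCI-SNU-1 cells, measured with a cell viability assay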
Description: SANGER: Inhibition of human NCI-SNU-1 cell growth in a cell viability assay.

EW-24 = format: functional, cell-based, Homo sapiens; conditions: Homo sapiens, EW-24;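 further: human EW-24 cancer cell line, growth inhibition read out via a cell viability assay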
Description: SANGER: Inhibition of human EW-24 cell growth in a cell viability assay.

CISPLATIN showed an IC50 (NCI-H1648; nci-h1648) of 69.7 µM, an IC50 (RXF 393; rxf 393) of 7.86 µM and an IC50 (DMS-114; dms-114) of 19.6 µM. The IC50 (EC-GI-10; ec-gi-10) was 13.2 µM, the IC50 (NCI-H1838; nci-h1838) was 281 µM and the IC50 (LOX IMVI; lox imvi) was 13.3 µM. For the same molecule, the IC50 (LB771-HNC; lb771-hnc) was 89.8 µM, the IC50 (LU-134-A; lu-134-a) was 3.94 µM and the IC50 (SK-LMS-1; sk-lms-1) was 814 µM. It also gave an IC50 (IST-SL1; ist-sl1) of 70.6 µM, an IC50 (SF-539; sf-539) of 3.53 µM and an IC50 (KU812 cell line; ku812) of 49 µM. For the same molecule, the IC50 (MC116; mc116) was 86.9 µM, the IC50 (ES4; es4) was 1.6 µM and the IC50 (UACC-257; uacc-257) was 108 µM. It also gave an IC50 (MV4-11; mv-4-11) of 3.46 µM, an IC50 (NCI-H720; nci-h720) of 136 µM and an IC50 (AM-38; am-38) of 225 µM. It also gave an IC50 (ES3; es3) of 0.863 µM, an IC50 (KG-1; kg-1) of 3.63 µM and an IC50 (NCI-H1581; nci-h1581) of 12.2 µM. The IC50 (KM12; km12) was 114 µM, the IC50 (TGBC24TKB; tgbc24tkb) was 39.8 µM and the IC50 (TGBC1TKB; tgbc1tkb) was 82.6 µM. For the same molecule, the IC50 (Calu-6; calu-6) was 75.8 µM, the IC50 (TE-10; te-10) was 158 µM and the IC50 (DB; db) was 2.14 µM. The IC50 (OVCAR-4; ovcar-4) was 22.3 µM, the IC50 (OMC-1; omc-1) was 12.6 µM and the IC50 (NCI-H446) was 37.4 µM. It also gave an IC50 (SW872; sw872) of 40.8 µM, an IC50 (MS-1; ms-1) of 14.1 µM and an IC50 (K5; k5) of 3.73 µM. The IC50 (CCRF-CEM; ccrf-cem) was 96 µM, the IC50 (HT; ht) was 252 µM and the IC50 (ETK-1; etk-1) was 49.8 µM. It also gave an IC50 (HH; hh) of 22.5 µM, an IC50 (DSH1; dsh1) of 145 µM and an IC50 (C2BBe1; c2bbe1) of 97 µM. For the same molecule, the IC50 (SW 962; sw 962) was 64.6 µM, the IC50 (NOMO-1; nomo-1) was 123 µM and the IC50 (CAS-1; cas-1) was 116 µM. For the same molecule, the IC50 (QIMR-WIL; qimr-wil) was 29.3 µM, the IC50 (L-428; l-428) was 18.9 µM and the IC50 (TE-9; te-9) was 15.4 µM. For the same molecule, the IC50 (SNB-75; snb-75) was 48 µM.
For CN(C)C(=N)NC(=N)N [METFORMIN], the IC50 (NCI-H1648; Homo sapiens, NCI-H1648) was > 20000 µM, the IC50 (RXF 393; Homo sapiens, RXF 393) was > 20000 µM and the IC50 (DMS-114; Homo sapiens, DMS-114) was > 20000 µM. The IC50 (EC-GI-10; Homo sapiens, EC-GI-10) was > 20000 µM, the IC50 (NCI-H1838; Homo sapiens, NCI-H1838) was > 20000 µM and the IC50 (LOX IMVI; Homo sapiens, LOX IMVI) was 10700 µM. For the same molecule, the IC50 (LB771-HNC; Homo sapiens, LB771-HNC) was > 20000 µM, the IC50 (LU-134-A; Homo sapiens, LU-134-A) was 13000 µM and the IC50 (SF-539; Homo sapiens, SF-539) was > 20000 µM. For the same molecule, the IC50 (KU812 cell line; Homo sapiens, KU812) was 1060 µM, the IC50 (MC116; Homo sapiens, MC116) was > 20000 µM and the IC50 (ES4; Homo sapiens, ES4) was > 20000 µM. It also gave an IC50 (SNU1) of 8470 µM, an IC50 (UACC-257; Homo sapiens, UACC-257) of 13900 µM and an IC50 (MV4-11; Homo sapiens, MV4-11) of 8430 µM. For the same molecule, the IC50 (NCI-H720; Homo sapiens, NCI-H720) was 534 µM, the IC50 (AM-38; Homo sapiens, AM-38) was > 20000 µM and the IC50 (ES3; Homo sapiens, ES3) was 16900 µM. The IC50 (KG-1; Homo sapiens, KG-1) was 16800 µM, the IC50 (NCI-H1581; Homo sapiens, NCI-H1581) was 14900 µM and the IC50 (KM12; Homo sapiens, KM12) was > 20000 µM. For the same molecule, the IC50 (TGBC1TKB; Homo sapiens, TGBC1TKB) was > 20000 µM, the IC50 (Calu-6; Homo sapiens, Calu-6) was 15200 µM and the IC50 (TE-10; Homo sapiens, TE-10) was > 20000 µM. For the same molecule, the IC50 (DB; Homo sapiens, DB) was > 20000 µM, the IC50 (OVCAR-4; Homo sapiens, OVCAR-4) was 4430 µM and the IC50 (OMC-1; Homo sapiens, OMC-1) was 16500 µM. The IC50 (MS-1; Homo sapiens, MS-1) was > 20000 µM, the IC50 (K5; Homo sapiens, K5) was > 20000 µM and the IC50 (CCRF-CEM; Homo sapiens, CCRF-CEM) was 2720 µM. The IC50 (HT; Homo sapiens, HT) was 11900 µM, the IC50 (ETK-1; Homo sapiens, ETK-1) was 14100 µM and the IC50 (HH; Homo sapiens, HH) was 9630 µM. The IC50 (DSH1; Homo sapiens, DSH1) was > 20000 µM, the IC50 (C2BBe1; Homo sapiens, C2BBe1) was 11800 µM and the IC50 (EW-24) was 9450 µM. For the same molecule, the IC50 (NOMO-1; Homo sapiens, NOMO-1) was > 20000 µM, the IC50 (QIMR-WIL; Homo sapiens, QIMR-WIL) was > 20000 µM and the IC50 (L-428; Homo sapiens, L-428) was 7760 µM. The IC50 (TE-9; Homo sapiens, TE-9) was 10500 µM and the IC50 (SNB-75; Homo sapiens, SNB-75) was > 20000 µM.
In the case of CC(C)c1ccccc1Cc1cc(C(=O)Nc2ccc(S(=O)(=O)c3ccccc3C(C)(C)C)cc2)c(O)c(O)c1O, the IC50 (NCI-H1648; Homo sapiens, NCI-H1648) is reported as 1.12 µM, the IC50 (RXF 393; Homo sapiens, RXF 393) is reported as 1.21 µM and the IC50 (DMS-114; Homo sapiens, DMS-114) is reported as 0.0907 µM. For the same molecule, the IC50 (EC-GI-10; Homo sapiens, EC-GI-10) was 0.47 µM, the IC50 (NCI-H1838; Homo sapiens, NCI-H1838) was 2.16 µM and the IC50 (LOX IMVI; Homo sapiens, LOX IMVI) was 0.271 µM. For the same molecule, the IC50 (LB771-HNC; Homo sapiens, LB771-HNC) was 0.166 µM, the IC50 (SK-LMS-1; Homo sapiens, SK-LMS-1) was 0.272 µM and the IC50 (IST-SL1; Homo sapiens, IST-SL1) was 0.438 µM. The IC50 (SF-539; Homo sapiens, SF-539) was 0.47 µM, the IC50 (ES4; Homo sapiens, ES4) was 0.516 µM and the IC50 (UACC-257; Homo sapiens, UACC-257) was 0.552 µM. It also gave an IC50 (AM-38; Homo sapiens, AM-38) of 0.841 µM, an IC50 (ES3; Homo sapiens, ES3) of 0.359 µM and an IC50 (NCI-H1581; Homo sapiens, NCI-H1581) of 0.0676 µM. The IC50 (KM12; Homo sapiens, KM12) was 1.88 µM, the IC50 (TGBC24TKB; Homo sapiens, TGBC24TKB) was 0.227 µM and the IC50 (TGBC1TKB; Homo sapiens, TGBC1TKB) was 1.13 µM. For the same molecule, the IC50 (Calu-6; Homo sapiens, Calu-6) was 0.887 µM, the IC50 (TE-10; Homo sapiens, TE-10) was 1.23 µM and the IC50 (OVCAR-4; Homo sapiens, OVCAR-4) was 0.61 µM. It also gave an IC50 (OMC-1; Homo sapiens, OMC-1) of 0.565 µM, an IC50 (SW872; Homo sapiens, SW872) of 0.0589 µM and an IC50 (K5; Homo sapiens, K5) of 1.77 µM. The IC50 (ETK-1; Homo sapiens, ETK-1) was 0.788 µM, the IC50 (DSH1; Homo sapiens, DSH1) was 0.517 µM and the IC50 (C2BBe1; Homo sapiens, C2BBe1) was 0.266 µM. It also gave an IC50 (SW 962; Homo sapiens, SW 962) of 0.378 µM, an IC50 (CAS-1; Homo sapiens, CAS-1) of 2.78 µM and an IC50 (TE-9; Homo sapiens, TE-9) of 0.225 µM.
